Data from patent US5077281A, “Novel use of taurolin” (priority 1985, dated 1991).
Converted amounts (≈) assume the structure as drawn. “Also recorded” adds a separate entry of the source. One block for each molecule: values may come before it.

Columns and labels:
blood plasma [1] = experiment: suppression of blood coagulation on addition to blood plasma; format: biochemical, human; details: 5 ml. pooled plasma, up to max. 50 mg.
Protocol: (§1) Therefore, in comparison with known anti-coagulants, the use of taurolin has the advantage that a sufficient blood coagulatability always still remains and, therefore, an overdosing is not possible.
(§2) Samples of, in each case, 5 ml. of a pooled plasma of various experimental persons were mixed with increasing amounts of taurolin, namely, with amounts of 0 (1), 10 (2), 20 (3), 30 (4), 40 (5) and 50 (6) mg. of taurolin/5 ml. plasma (the figures given in brackets give the sample numbers).

coagulation factor XII = molecular target: T1, coagulation factor XII (Homo sapiens, UniProt P00748); experiment: coagulation factor analysis in plasma; format: biochemical
T1 construct: clotting factor activity assay
T1 sequence (P00748 20-615): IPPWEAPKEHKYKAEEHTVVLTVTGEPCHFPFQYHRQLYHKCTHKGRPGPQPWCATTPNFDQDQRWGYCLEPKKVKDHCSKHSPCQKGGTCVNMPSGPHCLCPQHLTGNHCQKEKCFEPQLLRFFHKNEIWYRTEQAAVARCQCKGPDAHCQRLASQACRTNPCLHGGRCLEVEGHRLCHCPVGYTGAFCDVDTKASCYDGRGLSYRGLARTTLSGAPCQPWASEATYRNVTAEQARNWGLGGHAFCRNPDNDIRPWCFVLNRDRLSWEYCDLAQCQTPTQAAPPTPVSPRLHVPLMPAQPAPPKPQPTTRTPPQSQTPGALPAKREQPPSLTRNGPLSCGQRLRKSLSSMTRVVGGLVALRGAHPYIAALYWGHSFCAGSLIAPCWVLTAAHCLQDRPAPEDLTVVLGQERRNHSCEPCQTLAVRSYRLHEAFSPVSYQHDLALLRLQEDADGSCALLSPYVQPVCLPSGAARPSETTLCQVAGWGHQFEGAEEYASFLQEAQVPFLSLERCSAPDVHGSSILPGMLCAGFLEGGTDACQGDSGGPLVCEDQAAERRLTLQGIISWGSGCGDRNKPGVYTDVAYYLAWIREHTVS

solubility = format: physicochemical; details: 50 mg./5 ml. blood plasma corresponds to a 1% solution; read-out: solubility limit
coagulation factor V = experiment: coagulation factor analysis in plasma; format: biochemical, human
coagulation factor VIII = experiment: coagulation factor analysis in plasma; format: biochemical, human
blood plasma [2] = details: "Taurolin", Bruckner and Pfirrmann 1985; cited from earlier work
[3] = tested on: pooled plasma of various experimental persons; experiment: PTT test on pooled plasma mixed with taurolin; format: biochemical, human; details: for PTT: 30 minutes
Protocol: as §1, §2
(§3) The Quick test and the PTT test was carried out for the samples 1 to 6 and the following results (30 minutes) obtained (Table 1): […]

antithrombin III = experiment: function of antithrombin III; format: biochemical
coagulation factor XI = experiment: coagulation factor analysis in plasma; format: biochemical, human
fresh blood = experiment: fibrin deposition on taurolin-treated cellulose acetate foils in contact with fresh blood; parameters: species or system human
[4] = tested on: pooled plasma of various experimental persons; experiment: Quick test on pooled plasma mixed with taurolin; format: biochemical, human; details: for Quick test (%): 30 minutes
Protocol: as §1, §2, §3

[5] = tested on: blood coagula on the artificial surface; experiment: deposition of blood coagula on taurolin-contacted artificial surface in vivo; details: after contact of synthetic resin or metal surface with taurolin, implantation in organism with blood flow
Description: Therefore, this coagulation action can serve for the use of the taurolin for the treatment of surfaces of medical apparatus which are temporarily introduced into the blood stream, such as e.g. vein catheters (which, untreated, tend to blockage due to blood coagula which again represents a breeding place for bacteria, whereby the danger of a sepsis is brought about). The treatment of the apparatus can be carried out e.g. with an aqueous taurolin solution, especially a 1% aqueous taurolin solution. By means of an intermittent rinsing of vascular catheters, it is, in this way e.g. possible to prevent the coagula formation on the catheter tips.

coagulation factor II = experiment: coagulation factor analysis in plasma; format: biochemical, human
coagulation factor IX = experiment: coagulation factor analysis in plasma; format: biochemical, human
coagulation factor VII = experiment: coagulation factor analysis in plasma; format: biochemical, human
[6] = cited from earlier work
coagulation factor X = experiment: coagulation factor analysis in plasma; format: biochemical, human
[7] = 10 mg. taurolin/5 ml. plasma (sample 2)
[8] = 20 mg. taurolin/5 ml. plasma (sample 3)
[9] = 30 mg. taurolin/5 ml. plasma (sample 4)
[10] = 40 mg. taurolin/5 ml. plasma (sample 5)
[11] = 50 mg. taurolin/5 ml. plasma (sample 6)
[12] = maximum possible dosaging in the blood

Molecule: heparin
suppression of blood coagulation (blood plasma [1]): completely suppressed

direct action on the Factor XII of the coagulation system (coagulation factor XII): marked direct action
activity at 2000 µg/mL (coagulation factor XII; human, 10 mg. taurolin/5 ml. plasma (sample 2)): 177%
activity at 4000 µg/mL (coagulation factor XII; human, 20 mg. taurolin/5 ml. plasma (sample 3)): 77%
activity at 6000 µg/mL (coagulation factor XII; human, 30 mg. taurolin/5 ml. plasma (sample 4)): 64%
activity at 8000 µg/mL (coagulation factor XII; human, 40 mg. taurolin/5 ml. plasma (sample 5)): 55%
activity at 10000 µg/mL (coagulation factor XII; human, 50 mg. taurolin/5 ml. plasma (sample 6)): 61%
solubility (solubility): 10000 µg/mL (≈ 35.2 mM)
Molecule: O=S1(=O)CCN(CN2CCS(=O)(=O)NC2)CN1 [taurolin, 4,4'-Methylene-bis-(tetrahydro-2H-1,2,4-thiadiazine-1,1-dioxide)]
suppression of blood coagulation (blood plasma [1]): not completely suppressed
coagulation factor V (coagulation factor V; [7]): 121%
coagulation factor V (coagulation factor V; [8]): 110%
coagulation factor V (coagulation factor V; [9]): 92%
coagulation factor V (coagulation factor V; [10]): 81%
coagulation factor V (coagulation factor V; [11]): 79%
coagulation factor VIII (coagulation factor VIII; [7]): 48%
coagulation factor VIII (coagulation factor VIII; [8]): 21%
coagulation factor VIII (coagulation factor VIII; [9]): 13%
coagulation factor VIII (coagulation factor VIII; [10]): 6%
coagulation factor VIII (coagulation factor VIII; [11]): 6%
influence on blood coagulation as stated in the literature (blood plasma [2]): does not influence the blood coagulation
PTT [3, 7]: 38.0 s
PTT [3, 8]: 43.0 s
PTT [3, 9]: 48.8 s
PTT [3, 10]: 55.9 s
PTT [3, 11]: 61.8 s
PTT value (highest reached) [3, 12]: ≤ 60 s
function of antithrombin III (antithrombin III): inhibits dependent upon concentration
coagulation factor XI (coagulation factor XI; [7]): 301%
coagulation factor XI (coagulation factor XI; [8]): 197%
coagulation factor XI (coagulation factor XI; [9]): 140%
coagulation factor XI (coagulation factor XI; [10]): 83%
coagulation factor XI (coagulation factor XI; [11]): 47%
blood coagulation or fibrin deposition on the wall (fresh blood; cellulose acetate foil contacted with taurolin/blood plasma mixture (taurolin 1% in plasma), rinsed, fresh blood 30 minutes at 37° C.): no blood coagulation or fibrin deposition on the wall
fibrin fibre deposition on the surface (electron raster photographs) (fresh blood; cellulose acetate foil treated with 15 aqueous solution of taurolin 30 minutes at 37° C., then fresh blood 30 minutes at 37° C.): no fibrin fibre deposition on the surface could be ascertained
Quick test (%) [4, 7]: 65%
Quick test (%) [4, 8]: 53%
Quick test (%) [4, 9]: 44%
Quick test (%) [4, 10]: 39%
Quick test (%) [4, 11]: 35%
Quick value (lowest reached) [4, 12]: ≥ 20%
deposition of blood coagula on the artificial surface in vivo [5]: continuously effectively prevents the deposition of blood coagula; also recorded: effectively continuously prevents the deposition of blood coagula
coagulation factor II (coagulation factor II; [7]): 96%
coagulation factor II (coagulation factor II; [8]): 87%
coagulation factor II (coagulation factor II; [9]): 90%
coagulation factor II (coagulation factor II; [10]): 75%
coagulation factor II (coagulation factor II; [11]): 74%
coagulation factor IX (coagulation factor IX; [7]): 153%
coagulation factor IX (coagulation factor IX; [8]): 81%
coagulation factor IX (coagulation factor IX; [9]): 63%
coagulation factor IX (coagulation factor IX; [10]): 65%
coagulation factor IX (coagulation factor IX; [11]): 68%
coagulation factor VII (coagulation factor VII; [7]): 79%
coagulation factor VII (coagulation factor VII; [8]): 74%
coagulation factor VII (coagulation factor VII; [9]): 74%
coagulation factor VII (coagulation factor VII; [10]): 77%
coagulation factor VII (coagulation factor VII; [11]): 73%
solubility in water [6]: about 1%
coagulation factor X (coagulation factor X; [7]): 75%
coagulation factor X (coagulation factor X; [8]): 65%
coagulation factor X (coagulation factor X; [9]): 56%
coagulation factor X (coagulation factor X; [10]): 53%
coagulation factor X (coagulation factor X; [11]): 50%
